According to patent publication US6624141B1, “Protamine fragment compositions and methods of use” (The Regents of The University of Michigan, priority 1999, dated 2003):
Like-named read-outs stand apart in the source and are kept apart here.

Assays:
[1] = Binding constant to heparin determined with the heparin sensor
Text: (§1) With the assistance of the heparin sensor and the methodology described previously (Yun et al., 1993), the inventors were able to determine the binding constant of heparin and LMWH to ATIII, protamine, and LMWP.

[2] = test system: anti-Xa activity of CY216 (LMWH); assay: Neutralization of LMWH (CY216) by anti-Xa chromogenic substrate assay; assay type: biochemical; details: dose of 30 μg
Protocol: (§2) Heparin neutralization by protamine and LMWP was also measured in plasma by anti-factor Xa chromogenic assay and activated partial thromboplastin time (aPTT) clotting assay (Yang et al., 1986). In brief, for the anti-factor Xa assay, a series of plasma samples containing 0.4 mg of heparin, 15 IU of ATIII, and various amounts of protamine (0-0.8 mg) or LMWP (0-0.4 mg) were prepared. One hundred microliters of the plasma sample were then mixed with 800 μl of Tris-HCl buffer (pH 7.4), followed by the addition of 100 μl of Factor Xa (7.1 nkat/ml). After a 3 min incubation at 37° C., 200 μl of […] substrate (0.5 mg/ml) were added. The reaction mixture was incubated for 5 min at 37° C. and then quenched by the addition of 200 μl of 20% acetic acid. The absorbance in the solution was measured at 405 nm, and the degree of heparin neutralization is proportional to this measured absorbance.
Neutralization of the anticoagulant functions of both heparin and LMWH by protamine and LMWP is studied in human plasma using the aPTT clotting assay and the chromagenic anti-Xa and anti-IIa assays (Yang et al., 1986). The aPTT values of the test samples, are measured using a fibrometer (Fibrosystem; Becton-Dickinson, Cockeysville, Md.), and the anti-Xa and anti-IIa activities are measured using the chromagenic substrates S-2222 and S-2238, respectively. […]

[3] = Immunogenicity in mice, IgG antibody production by ELISA; assay type: in vivo; details: immunized with 50 μg in CFA plus boosters; ELISA on wells coated with the same species
Protocol: The immunogenicity of protamine and LMWP was examined in mice. The production of polyclonal antibodies was performed as described (Cooper and Paterson, 1991). Fifteen thin-skinned albino mice, ten for protamine and five for LMWP were included. Each mouse was immunized with 50 μg of either protamine or LMWP in the complete Freund's adjuvant (CFA). Four weeks later, animals were bled and first booster was given with 5 μg of protamine (or LMWP) in incomplete Freund's adjuvant (IFA). Second and third boosters were given at two-week intervals. Afterwards, blood was collected, allowed to clot, and centrifuged to collect serum. All sera were tested for IgG antibodies using a modified ELISA method (Singh et al., 1982). Protamine or LMWP was used to coat the wells of the microplate in order to capture their related antibodies. The detection antibody was goat-antimouse-IgG-alkaline phosphatase that was reacted with p-nitrophenylphosphate to produce the absorbance readings at 405 nm. The antigenicity of LMWP was examined by following the same ELISA method described above but by utilizing a LMWP-coated microplate for antibody detection in the protamine-immunized mice.

[4] = Binding constant to LMWH determined with the heparin sensor
Text: as §1

aPTT activity of heparin = assay: Heparin neutralization by aPTT clotting assay; assay type: biochemical, human; details: heparin 1 mg
Protocol: For the aPTT clotting assay, 15 μl of heparin solution (20 μg/ml) was mixed with 15 μl of solution containing various concentrations of protamine (0-60 μg/ml) or LMWP species (0-100 μg/ml). To the mixture, 100 μl of actin cephaloplastin and 100 μl of plasma were added. After 3 min of incubation, 100 μl of 0.02 M calcium chloride (preheated to 37° C.) was added and the clotting time was immediately measured using a fibrometer (Fibrosystem, Becton Dickinson Company, Cockeysville, Md.).

[5] = cited from earlier work
[6] = cited from earlier work; remark: listed apart in the source
[7] = test system: anti-Xa activity of heparin; assay: Heparin neutralization by anti-factor Xa chromogenic assay; assay type: biochemical, human; details: heparin 40 μg; half-points of ΔAbs in FIG. 5
Protocol: as §2

[8] = Blood glucose control in streptozotocin-diabetic rats; assay type: in vivo; details: data from 6 rats
Protocol: Induction of diabetes in rats was carried out by the injection of streptozotocin at a dose of 45 mg/kg body weight. Diabetes was confirmed 24 h after injection by measuring the tail blood glucose with a Lifescan Glucometer (One Touch II).

Substance	Binding Constant to Heparin [1] [µM⁻¹]	Binding Constant to Heparin ([1]; listed as protamine) [µM⁻¹]	neutralization of the anti-Xa activity of CY216 [2] [%]	mice with positive reaction for antibodies [3]	Binding Constant to LMWH [4] [µM⁻¹]	Binding Constant to LMWH ([4]; listed as protamine) [µM⁻¹]	amount required to completely neutralize the aPTT activity of heparin (aPTT activity of heparin) [mg]	units of heparin neutralized by each milligram ([5]; heparin derived from bovine lung tissue)	units of heparin neutralized by each milligram ([5]; heparin derived from porcine intestinal mucosa) [units]	pKa [6]	dose required for 50% heparin neutralization [7] [nmol]	overall time span to preserve a low glucose level [8] [min]	time required to reach the minimum glucose level [8] [min]
Protamine	89.0 ± 2.0	89	60	4 out of 10 and four out of ten	1.1 ± 0.3	1.1	~1.7	approximately 90 units	~115	about 10	7	–	–
insulin	–	–	–	–	–	–	–	–	–	–	–	360 ± 50	100 ± 20
